Results reported in patent US12691116B2, “SETBP1 and XPO1 inhibitors for the treatment of sickle cell disease and β-thalassemia” (The Henry M. Jackson Foundation for the Advancement of …, priority 2019, dated 2026).

Tests used:
MEL cells [1] = assay: Real-time RT-PCR of Hbb-bh1, Hbb-y and Hbb-b1 mRNA in MEL cells after 48 hours of treatment; type: cell-based, mouse; conditions: for increase in Hbb-bh1 (embryonic hemoglobin) mRNA level / increase in Hbb-y (fetal hemoglobin) mRNA level: 0.1 μM, 48 hours, relative to vehicle, normalized to Rpl4; for effect on Hbb-y mRNA level (in words) / effect on Hbb-bh1 mRNA level (in words): 48 hours of treatment at indicated concentration
Description: Real-time RT-PCR analysis of Hbb-bh1, Hbb-y, and Hbb-b1 mRNA levels in MEL cells after 48 hours of treatment with compound 1AA at indicated concentration or with control DMSO. Relative expression levels were calculated by normalizing to Rpl4 mRNA levels in the same sample and also to cells […] with DMSO. […]
Relative expression levels were calculated by normalizing to Rpl4 mRNA levels in the same sample and also to cells treated with DMSO.
(§1) For studies using MEL cells, the cells were treated with selected inhibitors or vehicle in a culture medium (RPM 11640 medium with 10% fetal bovine serum) for 48 hours and were subsequently harvested for analysis of relative mRNA levels of Hbb-bh1, Hbb-y, and Hbb-b1 using real-time RT-PCR. For studies using primary human CD34+ hematopoietic stem and progenitor cells, the cells were treated with inhibitors or vehicle following or concurrent with induction of erythroid differentiation using an established two-phase culture protocol (Xu et al., Genes & Development 24(8): 783-798 (2010)). Relative mRNA levels of β-like globin genes in human cells after treatment were also analyzed using real-time RT-PCR.

MEL cells [2] = assay: Real-time RT-PCR of hemoglobin mRNA in MEL cells 48 hours after removal of compound (24 hours treatment); type: cell-based, mouse; conditions: treated 24 hours, examined 48 hours after removal
Description: Real-time RT-PCR analysis of Hbb-bh1, Hbb-y, and Hbb-b1 mRNA levels in MEL cells 48 hours after removal of Compound (1AA) or KPT-185 from culture. The cells were first treated with Compound (1AA) or KPT-185 for 24 hours. Relative expression levels were calculated by normalizing to Rpl4 mRNA levels in the same sample and also to cells treated with DMSO.
A further experiment examined whether continuous treatment of Compound (1AA) and KPT-185 as exemplary SETBP1 and XPO1 inhibitors, respectively, was required for activation of Hbb-bh1 and Hbb-y expression. MEL cells were treated with Compound (1AA) and KPT-185 for 24 hours and the Hbb-bh1 and Hbb-y mRNA levels were then examined at 48 hours after their removal.

SETBP1 = SETBP1 (Homo sapiens, UniProt Q9Y6X0); conditions: cited from earlier work
SETBP1, sequence (Q9Y6X0 whole entry): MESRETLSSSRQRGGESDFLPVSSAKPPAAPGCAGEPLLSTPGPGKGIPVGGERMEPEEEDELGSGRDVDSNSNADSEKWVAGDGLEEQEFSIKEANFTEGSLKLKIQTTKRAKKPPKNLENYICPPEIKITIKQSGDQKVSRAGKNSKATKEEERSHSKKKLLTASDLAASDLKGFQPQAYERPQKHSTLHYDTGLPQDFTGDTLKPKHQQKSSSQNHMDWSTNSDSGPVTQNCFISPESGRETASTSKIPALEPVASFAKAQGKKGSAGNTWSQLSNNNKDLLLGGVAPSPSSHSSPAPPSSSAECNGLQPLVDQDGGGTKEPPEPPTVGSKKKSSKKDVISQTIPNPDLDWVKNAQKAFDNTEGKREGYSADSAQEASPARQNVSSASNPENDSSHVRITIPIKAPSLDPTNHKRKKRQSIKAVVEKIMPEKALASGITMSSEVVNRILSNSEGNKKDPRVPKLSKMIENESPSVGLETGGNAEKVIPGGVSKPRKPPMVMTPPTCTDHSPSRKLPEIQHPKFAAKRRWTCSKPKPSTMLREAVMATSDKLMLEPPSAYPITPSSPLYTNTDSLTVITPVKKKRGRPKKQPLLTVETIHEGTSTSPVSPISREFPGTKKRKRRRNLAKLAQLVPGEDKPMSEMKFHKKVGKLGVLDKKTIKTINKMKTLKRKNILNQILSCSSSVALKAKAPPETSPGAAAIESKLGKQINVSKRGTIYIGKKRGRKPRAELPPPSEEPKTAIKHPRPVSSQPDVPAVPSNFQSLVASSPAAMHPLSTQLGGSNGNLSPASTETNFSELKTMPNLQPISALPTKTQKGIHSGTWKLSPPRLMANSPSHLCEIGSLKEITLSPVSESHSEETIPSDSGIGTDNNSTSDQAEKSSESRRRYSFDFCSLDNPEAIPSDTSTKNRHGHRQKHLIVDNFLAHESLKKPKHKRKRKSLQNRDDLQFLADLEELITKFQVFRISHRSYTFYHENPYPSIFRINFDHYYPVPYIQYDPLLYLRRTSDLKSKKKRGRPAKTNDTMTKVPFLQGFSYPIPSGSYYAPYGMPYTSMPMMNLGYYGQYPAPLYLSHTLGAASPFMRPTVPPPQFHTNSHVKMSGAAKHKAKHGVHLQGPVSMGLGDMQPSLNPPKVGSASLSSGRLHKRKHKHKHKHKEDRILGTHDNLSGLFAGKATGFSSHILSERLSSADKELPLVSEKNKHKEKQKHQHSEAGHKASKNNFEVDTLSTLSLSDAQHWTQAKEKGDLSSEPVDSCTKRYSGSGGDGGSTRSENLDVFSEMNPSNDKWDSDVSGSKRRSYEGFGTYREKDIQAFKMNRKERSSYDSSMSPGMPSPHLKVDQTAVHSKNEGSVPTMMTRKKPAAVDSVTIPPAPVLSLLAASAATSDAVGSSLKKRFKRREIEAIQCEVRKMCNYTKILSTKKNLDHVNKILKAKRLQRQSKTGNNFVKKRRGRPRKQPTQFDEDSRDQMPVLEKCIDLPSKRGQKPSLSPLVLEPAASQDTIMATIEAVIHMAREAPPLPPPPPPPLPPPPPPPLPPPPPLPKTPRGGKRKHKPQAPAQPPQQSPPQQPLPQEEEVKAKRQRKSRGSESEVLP

human erythroid cells = assay: Erythroid differentiation of human mobilized CD34+ cells, real-time RT-PCR of globin mRNA; type: cell-based; conditions: human erythroid cells from CD34+ cells, treatment from day 5 of expansion, harvested day 10 of differentiation
Source text: Human CD34^+ cells mobilized by granulocyte-colony stimulating factor (G-CSF) were induced to undergo erythroid differentiation in culture. Treatment with Compound 1AA and 1BB at indicated concentrations or vehicles (DMSO or water) were started at day 5 of expansion condition. Erythroid cells were harvested at day 10 of differentiation condition for real-time RT-PCR analysis of human embryonic […] (FIG. 8A), fetal γ (FIG. 8B), and adult β (FIG. 8C) hemoglobin mRNA levels. Relative expression levels were calculated by normalizing to RPL4 mRNA levels in the same sample and also to cells treated with DMSO. (FIG. 8D) Representative bar graphs showing mRNA levels of human embryonic and fetal hemoglobin (γ+ε) as a percentage of total β-like globin (β+γ+ε) mRNA levels after treatment with Compound 1AA and 1BB versus DMSO. Note that a level of 20% or above for embryonic and fetal hemoglobin is considered curative for sickle cell disease. **, P<0.01; ***, P<0.001; ****P<0.0001 (two-tailed Student's t test).
as §1
Primary human mobilized CD34^+ cells were initially cultured in expansion medium containing StemSpan SFEM Medium (StemCell Technologies Inc.) with 1×CC100 cytokine mix (StemCell Technologies Inc.) and 2% Penicillin-Streptomycin (Life Technologies Inc.). Cells were maintained in this expansion medium at a density of 0.1-1×10^6 cells/mL for a total of six days with media changes every two days. On day 6, cells were transferred into differentiation medium containing StemSpan SFEM Medium with 2% Penicillin-Streptomycin, 20 ng/ml SCF (Biolegend), 1 U/ml EPO (Amgen), 5 ng/ml IL-3 (Biolegend), 2 μM dexamethasone (Sigma), and 1 μM β-estradiol (Sigma). Cells were maintained at a density of 0.1-1×10^6 cells/mL in differentiation medium for 10 days with media changes every two days. Drug treatments were started at day 5 of expansion condition and maintained thereafter. Fresh drugs were added at each medium change.

[3] = tested on: SETBP1 interaction with XPO1; conditions: cited from earlier work

Row | Compound | increase in Hbb-bh1 (embryonic hemoglobin) mRNA level (MEL cells [1]) | increase in Hbb-y (fetal hemoglobin) mRNA level (MEL cells [1]) | Hbb-bh1 mRNA level compared to cells treated with hydroxyurea (MEL cells [1]; 48 hours of treatment) | Hbb-bh1 mRNA level after removal of compound (MEL cells [2]) | Hbb-y mRNA level after removal of compound (MEL cells [2]) | effect on Hbb-y mRNA level (in words) (MEL cells [1]) | effect on Hbb-bh1 mRNA level (in words) (MEL cells [1]) | effect on adult hemoglobin Hbb-b1 mRNA level (MEL cells [1]; 48 hours of treatment) | inhibition of SETBP1 (transcriptional activity) (SETBP1) | human embryonic hemoglobin mRNA level (human erythroid cells) | human fetal γ hemoglobin mRNA level (human erythroid cells) | blocking of SETBP1 interaction with cofactor XPO1 [3]
1 | COc1cc(-c2ncn(/C=C\C(=O)OC(C)C)n2)cc(C(F)(F)F)c1 [KPT-185, reference compound] | over 60 fold | over 14 fold | ~30 fold | Significantly elevated levels | Significantly elevated levels | – | – | – | – | – | – | –
2 | O=C(/C=C\n1cnc(-c2cc(C(F)(F)F)cc(C(F)(F)F)c2)n1)NNc1cnccn1 [KPT-330, reference compound] | – | – | – | – | – | significantly increase | – | – | – | – | – | –
3 | NC(=O)/C(=C/n1cnc(-c2cc(C(F)(F)F)cc(C(F)(F)F)c2)n1)c1cncnc1 [KPT-8602, reference compound] | – | – | – | – | – | significantly increase | significantly increase | – | – | – | – | –
4 | CCN(CC)CC[n+]1ccc2c(C)c3[nH]c4ccc(O)cc4c3c(C)c2c1.[Cl-] [Compound (1BB)] | – | – | – | – | – | significantly increase | significantly increase | minor effects | inhibitor | significantly increased | significantly increased | –
5 | Cc1c2cc[n+](CCN3CCCCC3)cc2c(C)c2c1[nH]c1ccc(O)cc12.[Br-] [Compound (1AA)] | > 8 fold | > 8 fold | – | Significantly elevated levels | Significantly elevated levels | – | – | only minor changes | inhibitor | significantly increased | significantly increased | blocking
